Read-outs that look alike come from different tables or passages of the source.
Key:
androgen receptor = target: T1, androgen receptor (Homo sapiens, UniProt P10275); experiment: Co-transfection androgen antagonist assay (CV-1 cells, pRShAR, MTV-LUC reporter; AR-wt); type: cell-based; conditions: for IC50: read-out: Potency (IC50, concentration required to reduce the maximal response by 50%)
T1 construct: expressed in transfected cells; host or cells: CV-1 (monkey kidney fibroblast) cells, plasmid pRShAR, with reporter plasmid MTV-LUC
T1 sequence (P10275 1-920): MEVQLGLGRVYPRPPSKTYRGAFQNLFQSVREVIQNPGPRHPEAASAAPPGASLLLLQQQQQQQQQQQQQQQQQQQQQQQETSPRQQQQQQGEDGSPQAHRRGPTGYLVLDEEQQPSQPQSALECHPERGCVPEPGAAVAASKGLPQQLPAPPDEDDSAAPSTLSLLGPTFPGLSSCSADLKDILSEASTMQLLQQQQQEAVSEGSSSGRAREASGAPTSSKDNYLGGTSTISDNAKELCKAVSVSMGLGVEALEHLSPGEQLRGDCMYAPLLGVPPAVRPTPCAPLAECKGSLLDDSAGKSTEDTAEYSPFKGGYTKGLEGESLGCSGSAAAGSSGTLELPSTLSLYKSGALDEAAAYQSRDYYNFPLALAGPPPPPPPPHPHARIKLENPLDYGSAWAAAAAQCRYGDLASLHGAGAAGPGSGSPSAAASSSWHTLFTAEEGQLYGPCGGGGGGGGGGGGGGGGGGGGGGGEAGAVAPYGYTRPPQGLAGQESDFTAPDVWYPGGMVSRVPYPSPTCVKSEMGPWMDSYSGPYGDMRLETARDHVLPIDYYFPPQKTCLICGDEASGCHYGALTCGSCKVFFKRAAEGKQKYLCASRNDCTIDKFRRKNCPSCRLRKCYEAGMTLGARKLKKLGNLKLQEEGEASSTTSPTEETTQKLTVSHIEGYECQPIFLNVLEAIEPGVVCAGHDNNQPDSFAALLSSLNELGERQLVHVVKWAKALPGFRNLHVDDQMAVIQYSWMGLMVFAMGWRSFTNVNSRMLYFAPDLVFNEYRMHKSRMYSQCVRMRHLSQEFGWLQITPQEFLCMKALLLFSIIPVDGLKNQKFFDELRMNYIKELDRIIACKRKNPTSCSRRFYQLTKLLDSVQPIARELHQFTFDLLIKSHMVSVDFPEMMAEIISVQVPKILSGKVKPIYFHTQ
Source text: The co-transfection assay provides a method for identifying functional ligands (either agonists which mimic, or antagonists which inhibit, the effect of hormones), and quantifying their activity for ligand-responsive receptor proteins. In this regard, the co-transfection assay mimics an in vivo system in the laboratory. Importantly, activity in the co-transfection assay correlates very well with known in vivo activity, such that the co-transfection assay functions as a quantitative predicator of a tested compounds in vivo pharmacology. See, e.g., T. Berger et al. 41 J. Steroid Biochem. Molec.
(§1) In the co-transfection assay, a cloned gene for an intracellular receptor (e.g., androgen receptor) is introduced by transfection (a procedure to induce cells to take up foreign genes) into a background cell substantially devoid of endogenous intracellular receptors. This introduced gene directs the recipient cells to make the intracellular receptor protein. A second gene is also introduced (co-transfected) into the same cells in conjunction with the intracellular receptor gene. This second gene functions as a reporter for the transcription-modulating activity of the target intracellular receptor. Thus, the reporter acts as a surrogate for the products normally expressed by a gene under control of the target receptor and its natural hormone. A preferred reporter gene is one which expresses the firefly enzyme luciferase.
(§2) The co-transfection assay can detect small molecule agonists or antagonists of target intracellular receptors. Exposing the cells to an agonist ligand increases reporter activity in the transfected cells. This activity can be conveniently measured, e.g., by increasing luciferase production, which reflects ligand-dependent, intracellular receptor-mediated increases in reporter transcription. To detect antagonists, the co-transfection assay is carried out in the presence of a constant concentration of an agonist (e.g., for androgen receptor, dihydrotestosterone) known to induce a defined reporter signal. Increasing concentrations of a test antagonist will decrease the reporter signal (e.g., luciferase production). The co-transfection assay is therefore useful to detect both agonists and antagonists of specific intracellular receptors. It determines not only whether a compound interacts with a particular intracellular receptor, but whether this interaction mimics (agonizes) or blocks (antagonizes) the effects of the natural regulatory molecules on target gene expression, as well as the specificity and strength of this interaction.
Co-transfected cells are exposed to a medium to which is added the potential ligand (compound) that is being evaluated. If the candidate compound diffuses into the cell, binds to the receptor, and the resulting receptor complex functions as an agonist, it will subsequently bind to the co-transfected reporter gene and initiate transcription. Typically, the reporter gene is one that expresses luciferase, which is capable of catalyzing a light-emitting reaction with its substrate luciferin. Thus, after cell lysis and the introduction of luciferin, the amount of light produced relative to the concentration of candidate compound used in the assay provides a measure of the potency and efficacy of the compound tested. Antagonist activity is evaluated by adding the candidate ligand and a known agonist to the co-transfected cells. […]

[1] = tested on: progesterone receptor (PR-TI); experiment: Antagonist activity on progesterone receptor, CV-1 cells cotransfected with pRShPR-B altered at Tau-1 (PR-TI); type: cell-based, human; conditions: Table 2, CV-1 cells PR-TI; for Efficacy, PR-TI (% maximal response): comparable to that found with RU-486; for IC50: read-out: Potency, PR-TI (IC50)
Source text: as §1, §2
Co-transfected cells are exposed to a medium to which is added the potential ligand (compound) that is being evaluated. If the candidate compound diffuses into the cell, binds to the receptor, and the resulting receptor complex functions as an agonist, it will subsequently bind to the co-transfected reporter gene and initiate transcription. Typically, the reporter gene is one that expresses luciferase, which is capable of catalyzing a light-emitting reaction with its substrate luciferin. Thus, after cell lysis and the introduction of luciferin, the amount of light produced relative to the concentration of candidate compound used in the assay provides a measure of the potency and efficacy of the compound tested. Antagonist activity is evaluated by adding the candidate ligand and a known agonist to the co-transfected cells.
The specific activity of Compounds A-J was compared relative to their antagonist activity on the human progesterone receptor (PR) utilizing CV-1 cells cotransfected with plasmid pRShPR-B, as altered at the Tau-1 location (e.g., PR-TI)[specifically, hPR-B was excised from the vector pGEM3Z (69 Cell 703 (1992)); the Tau-1 fragment of the gluccocorticoid receptor was inserted into hPR-B at the unique HincII site in the N-terminal region; a Bst EII to BST bI fragment spanning the Tau-1 insertion was then used to replace the corresponding region in pRShPR-B]. […] Potency or IC50 is as reported for AR-wt transfected CV-1 cells.

[2] = CV-1, Table 1, androgen antagonists, relative to 2-Hydroxy-flutamide, read-out: Efficacy (% maximal response relative to 2-Hydroxy-flutamide)
[3] = Table 2, CV-1 cells AR-wt, read-out: Efficacy, AR-wt

Row | Compound | Emax (androgen receptor; [2]) [%] | IC50 (androgen receptor; Table 1, androgen antagonists) [nM] | Emax (androgen receptor; [3]) [%] | Efficacy, PR-TI (% maximal response) [1] [%] | IC50 [1] [nM]
1 | O=[N+]([O-])c1ccc(C[C@@H]2CCCC[C@H]2O)cc1 (relative stereo) [I, trans-2-(4'-Nitrophenyl)methylcyclohexan-1-ol] | 85 | 290 | 85 | 99 | 360
2 | COc1cc(C[C@@H]2CCCC[C@@]2(C)O)c(O)cc1Br (relative stereo) [Q, trans-1-Methyl-2-(2'-hydroxy-4'-bromo-5'-methoxyphenyl)methylcyclohexan-1-ol] | 94 | 460 |  |  | 
3 | C=C1C[C@H](C)CC(C)(C)[C@@H]1Cc1cc(OC)c(Br)cc1O (relative stereo) [S, cis-1Methylidene-2-(2'-hydroxy-4'-bromo-5'-methoxyphenyl)methyl-3,3,5-trimethyl-cyclohexane] | 92 | 500 |  |  | 
4 | C=C1[C@@H](Cc2cc(OC)c(Br)cc2O)C(C)(C)CC[C@@H]1O [B, (1S,3S)-1-Hydroxy-2-methylidene-3-(2'-hydroxy-4'-bromo-5'-methoxyphenyl)methyl-4,4-dimethylcyclohexane] | 85 | 180 | 85 | 98 | 865
5 | C=C1C=CCC(C)(C)C1Cc1ccccc1O (stereo not drawn) [C, 1-Methylidene-6-(2'-hydroxyphenyl)methyl-5,5-dimethylcyclohex-2-ene] | 82 | 210 | 82 | 20 | > 10000
6 | C=C1C=CCC(C)(C)C1Cc1cccc([N+](=O)[O-])c1 (stereo not drawn) [Compound A, 1-Methylidene-6-(3'-nitrophenyl)methyl-5,5-dimethylcyclohex-2-ene] | 69 | 66 | 69 | 45 | 3800
7 | C=C1CCCC(C)(C)C1Cc1ccccc1O (stereo not drawn) [D] | 92 | 220 | 92 | 73 | 3500
8 | C=C1C=CC(Br)C(C)(C)[C@H]1Cc1cc(OC)c(Br)cc1OC(C)=O (stereo partly drawn) [E, (4S,6S)-1-Methylidene-4-bromo-5-(2'-acetoxy-4'-bromo-5'-methyoxyphenyl)methyl-5,5-dimethylcyclohex-2-ene] | 60 | 230 | 60 | 20 | > 10000
9 | C=C1C=CCC(C)(C)C1Cc1cc(OC)c(Br)cc1OC(C)=O (stereo not drawn) [F] | 87 | 240 | 87 | 53 | 820
10 | O=C1CCCCC1Cc1ccc([N+](=O)[O-])cc1 (stereo not drawn) [G, 2-(4'-Nitrophenyl)methylcyclohexan-1-one] | 79 | 250 | 79 | 98 | 920
11 | COc1cc(CC2C(C)(C)CC(C)=CC23CC3)c(OC(C)=O)cc1Br (stereo not drawn) [H, 8-(2'-Acetoxy-4'-bromo-5 '-methoxyphenyl)methyl-5,7,7-trimethylspiro[2.51]oct-4-ene] | 89 | 250 | 89 | 26 | 160
12 | C=C1CCC(C)(C)C1Cc1cc(OC)c(Br)cc1O (stereo not drawn) [K, 1-Methylidene-2-(2'-hydroxy-4'-bromo-5'methoxyphenyl)methyl-3,3-dimethylcyclo-pentane] | 91 | 330 |  |  | 
13 | C=C1C=CC[C@@H](C)[C@@H]1Cc1cc(OC)c(Br)cc1OC(C)=O [L, (5R,6S)-1-Methylidene-6-(2'-acetoxy-4'-bromo-5'-methoxyphenyl)methyl-5-methylcyclohex-2-ene] | 88 | 370 |  |  | 
14 | C=C1C=C(C)C[C@@H](C)[C@@H]1Cc1cc(OC)c(Br)cc1OC(C)=O [O, (5R,6S)-1-Methylidene-6-(2'-acetoxy-4'-bromo-5 '-methoxyphenyl)methyl-3,5-dimethyl-cyclohex-2-ene] | 78 | 390 |  |  | 
15 | C=C1[C@@H](Cc2cc(OC)c(Br)cc2O)C(C)(C)CC[C@@]1(C)O [P, (1R,3S)-1-Hydroxy-2-methylidene-3-(2'-hydroxy-4'-bromo-5'-methoxyphenyl)methyl-1,4,4-trimethylcyclohexane] | 88 | 420 |  |  | 
16 | C=C1[C@H](O)CCC(C)(C)[C@H]1Cc1cc(OC)c(Br)cc1O [R, (1R,3R)-1-Hydroxy-2-methylidene-3-(2'-hydroxy-4'-bromo-5'-methoxyphenyl)methyl-4,4-dimethylcyclohexane] | 70 | 500 |  |  | 
17 | C=C1C=CCC(C)(C)C1Cc1ccc([N+](=O)[O-])c(C)c1 (stereo not drawn) [T, 1-Methylidene-6-(3'-methyl-4'-nitrophenyl)methyl-5,5-dimethylcyclohex-2-ene] | 88 | 545 |  |  | 
18 | C=C1C=C(C)CC(C)(C)C1Cc1ccc([N+](=O)[O-])c(C)c1 (stereo not drawn) [U, 1-Methylidene-6-(3'-methyl-4'-nitrophenyl)methyl-3,5,5-trimethylcyclohex-2-ene] | 69 | 565 |  |  | 
19 | CC1(C)CCCC(=O)C1Cc1ccc([N+](=O)[O-])cc1 (stereo not drawn) [V, 2-(4'-Nitrophenyl)methyl-3.3-dimethylcyclohexan-1-one] | 85 | 590 |  |  | 
20 | C=C1C=CCC(C)(C)C1Cc1cc(OC)c(Br)cc1O (stereo not drawn) [W, 1-Methylidene-6-(2'-hydroxy-4'-bromo-5'-methoxyphenyl)methyl-5,5-dimethylcyclo-hex-2-ene] | 89 | 610 |  |  | 
21 | COc1cc(CC2CCCCC2=O)c(O)cc1Br (stereo not drawn) [Y, 2-(2'-hydroxy-4'-bromo-5 '-methoxyphenyl)methylcyclohex-1-one] | 67 | 340 |  |  | 

Reference: patent US5677336A, “Non-steroid androgen receptor antagonist compounds and methods” (Ligand Pharmaceuticals Incorporated, priority 1993, dated 1997)
